Measured values reported in US6767741B1, “Metal binding compounds and their use in cell culture medium compositions” (Invitrogen Corporation, priority 1999, dated 2004).

Tests used:
Assay type in all cases: cell-based
293 cells = assay: Growth of 293 cells in transferrin-free 293 SFM with metal binding compounds; conditions: third passage, control = 5 μg/mL human holo-transferrin, duplicate cultures
Method: Semi-confluent adherent cultures of 293 Cells (ATCC, CRL 1573) are readily adapted to suspension culture. The cells are first detached with a solution of Trypsin-EDTA (0.05% Trypsin, 0.53 mM Na4EDTA), and then resuspended in conventional medium supplemented with 10% FBS to inhibit the trypsin. The resuspended cells are centrifuged at 200×g for five minutes. The cell pellet is resuspended in 293 SFM (available from Life Technologies, Rockville, Md.) the formulation of which is described in WO 98/08934 which is specifically incorporated herein by reference. Alternatively, the cells may be detached with Versene (Na4EDTA, 0.53 mM) and resuspended in 293 SFM.
The initial seeding density of the 293 cells after conversion to suspension culture is 1×10^6 cells/mL. The cells are shaken on a rotary shaker at 150 rpm in a 37° C. incubator equilibrated with 8% CO2-92% air. When the cells reach a density of 1.5×10^6 cells/mL they are diluted with 293 SFM to a density of 3.0×10^5 cells/mL. Because 293 cells have a tendency to aggregate, the cells may be vortexed vigorously for approximately 45 seconds to obtain a predominantly single cell suspension at the time of passaging and counting. After several passages in suspension culture, the maximum achievable density may be determined.
The ability of metal binding compounds to support cellular growth was evaluated using 293 cells maintained in 293 SFM (Life Technologies, Rockville, Md.) without transferrin or metal binding compound. Stock cultures containing 5 μg/mL human holo-transferrin were prepared in 293 SFM. For metal binding compound evaluation, 293 cells were established in 125 mL shaker flasks at an initial viable seeding density of 2×10^5 cells/mL in a final volume of 20 mL. All cultures were maintained at 37° C. in humidified air containing 8% CO2. To eliminate transferrin carry-over effects, cells were subcultured at 4 day intervals for a total of three passages. At each subculturing, cells were seeded at a density of 2×10^5 cells/mL. Positive control cultures contained 5 μg/mL human holo-transferrin while negative control cultures were established in the absence of either transferrin or metal binding compound. Metal binding compound stocks were prepared at 0.1M-0.2M in ddH2O and solubilized when necessary using 5N NaOH or HCl. Iron complexes were established using 0.2M metal binding compound and iron stocks mixed 1:1 (v/v) and incubated for 5-10 minutes at 22° C. All solutions containing metal binding compounds were filter sterilized using a 0.22 μm Millex-GV filter prior to addition to transferrin and serum-free media.
In most cases, metal binding compounds were evaluated either alone or in combination with ferric chloride or ferrous sulfate at 25 μM, 50 μM and 100 μM. When used in combination, the metal binding compounds were used in equimolar concentration with iron ions. Values in the table represent the mean percentage of control growth for duplicate cultures determined at the third passage.
(§1) When added to the medium formulation un-complexed, the metal binding compound is listed alone, when added as a complex with a transition metal, the source of the transition metal is listed with the metal binding compound.

CHO cells = assay: Growth of CHO cells in transferrin-free CD CHO medium with metal binding compounds; conditions: third passage, control = 5 μg/mL human holo-transferrin, duplicate cultures
Method: The ability of metal binding compounds to support cellular growth in the absence of transferrin was evaluated using CHO cells maintained in CD CHO medium (Life Technologies, Rockville, Md., the formulation of which is described in WO 98/08934). Stock cultures containing 5 μg/mL human holo-transferrin were prepared in CD CHO medium. For metal binding compound evaluation, CHO cells were established in 125 mL shaker flasks at an initial viable seeding density of 1×10^5 cells/mL in a final volume of 20 mL. All cultures were maintained at 37° C. in humidified air containing 8% CO2. To eliminate transferrin carry-over effects, cells were subcultured at 4 day intervals for a total of three passages. Positive control cultures contained 5 μg/mL human holo-transferrin while negative control cultures were established in the absence of either transferrin or metal binding compound. Metal binding compound stocks were prepared at 0.1M-0.2M in ddH2O and solubilized when necessary using 5N NaOH or HCl. Iron complexes were established using 0.2M metal binding compound and iron stocks mixed 1:1 (v/v) and incubated for 5-10 minutes at 22° C. All solutions containing metal binding compounds were filter sterilized using a 0.22 μm Millex-GV filter prior to addition to transferrin and serum-free media.
(§2) In most cases, metal binding compounds were evaluated either alone or in combination with ferric chloride or ferrous sulfate at 25 μM, 50 μM and 100 μM. Values in the table represent the mean percentage of control growth for duplicate cultures determined at the third passage.
as §1, with “The ability of various metal binding compounds to substitute for transferrin in the culture of CHO cells was determined. When” for “When”

Sp2/0 cells = assay: Growth of Sp2/0 cells in transferrin-free CD Hybridoma medium with metal binding compounds; conditions: third passage, control = 5 μg/mL human holo-transferrin, duplicate cultures
Method: The ability of iron metal binding compounds to support cellular growth in the absence of transferrin was evaluated using Sp2/0 cells maintained in CD Hybridoma medium (Life Technologies, Rockville, Md.). Stock cultures containing 5 μg/mL human holo-transferrin were prepared in CD Hybridoma medium. For metal binding compound evaluation, Sp2/0 cells were established at an initial viable cell density of 0.5×10^5 cells/mL in stationary culture using 75 cm^2 tissue culture flasks in a final volume of 20 mL. All cultures were maintained at 37° C. in humidified air containing 8% CO2. To eliminate transferrin carry-over effects, cells were subcultured at the same seeding density at 4 day intervals for a total of three passages. Positive control cultures contained 5 μg/mL human holotransferrin while negative control cultures were established in the absence of either transferrin or metal binding compound. Metal binding compound stocks were prepared at 0.1M-0.2M in ddH2O and solubilized when necessary using 5N NaOH or HCl. Iron complexes were established using 0.2M metal binding compound and iron stocks mixed 1:1 (v/v) and incubated for 5-10 minutes at 22° C. All solutions containing metal binding compounds were filter sterilized using a 0.22 μm Millex-GV filter prior to addition to transferrin and serum-free media.
as §2, §1

mammalian cells = assay: Replacement of transferrin as iron carrier in culture media (general statements); conditions: statement in words
Text: By “compatible ingredients” is also meant those media nutrients which can be maintained together in solution and form a “stable” combination. […] Ingredients are also considered “stable” if degradation cannot be detected or when degradation occurs at a slower rate when compared to decomposition of the same ingredient in a 1×cell culture media formulation. For example, in 1×media formulations glutamine is known to degrade into pyrolidone carboxylic acid and ammonia. Glutamine in combination with divalent cations are considered “compatible ingredients” since little or no decomposition of the glutamine can be detected over time in solutions or combinations in which both glutamine and divalent cations are present. See U.S. Pat. No. 5,474,931.
The metal-binding compounds used in accordance with the present invention may be obtained commercially (e.g., from Sigma,St. Louis, Mo. and other well-known commercial sources), or may be prepared synthetically according to the guidance provided by the technical and patent publications referenced herein, the disclosures of which are incorporated herein by reference in their entireties.

Molecule | mean percentage of control growth (293 cells; 25 μM) [%] | mean percentage of control growth (293 cells; 50 μM) [%] | mean percentage of control growth (293 cells; 100 μM) [%] | mean percentage of control growth (CHO cells; 25 μM) [%] | mean percentage of control growth (CHO cells; 50 μM) [%] | mean percentage of control growth (CHO cells; 100 μM) [%] | mean percentage of control growth (Sp2/0 cells; 25 μM) [%] | mean percentage of control growth (Sp2/0 cells; 50 μM) [%] | mean percentage of control growth (Sp2/0 cells; 100 μM) [%] | ability to replace transferrin as iron carrier in culture media (mammalian cells)
O=S(=O)([O-])[O-].[Fe+2] [Ferrous Sulfate, reference compound] | 71 | 60 | 41 | 88 | 79 | 38 | 91 | 103 | 94 | –
NC(=O)CCC(N)C(=O)O.[Cl][Fe]([Cl])[Cl] (centres unmarked) [Glutamine · Ferric Chloride] | – | – | – | – | – | – | 36 | 55 | 65 | can be substituted for transferrin
O=C(O)CN(CC(=O)O)CC(=O)O.[Cl][Fe]([Cl])[Cl] [Nitriloacetic Acid · Ferric Chloride] | 100 | 118 | 74 | 127 | 107 | 107 | 88 | 87 | 70 | –
NC(CO)C(=O)NO.[Cl][Fe]([Cl])[Cl] (centres unmarked) [Serine Hydroxamate · Ferric Chloride] | 68 | 65 | 51 | 106 | 121 | 124 | 46 | 66 | 62 | –
OC[C@@H](O)[C@@H](O)[C@H](O)[C@@H](O)CO [sorbitol] | – | – | – | – | – | – | – | – | – | used successfully to replace transferrin
Ferrous Gluconate · Ascorbic Acid Phosphate | 86 | 109 | 101 | 91 | 61 | 28 | 92 | 94 | 93 | –
